Calls of active or inactive are those of the source.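 How the source made its calls: active means half-maximal inhibitory concentration below a set limit; inactive means the rest.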
Molecular target: E3 ubiquitin-protein ligase SIAH1 (Homo sapiens) (UniProt Q8IUQ4)
Experiment: Siah-1 peptide-binding antagonists, alternate label, dose response, artefact control for Siah-1 antagonist project, biochemical, fluorescence polarization, fluorescein-plectin (AID 2127)
Settings: Siah-1/fluorescein-plectin binding

SMILES | IC50
O=C(CCN1CCN(Cc2ccccc2)CC1)Nc1cccc(Cl)c1 | > 200 µM (inactive)
O=c1[nH]c(-c2ccc(F)cc2)nc2c1sc(=S)n2-c1ccccc1 | > 200 µM (inactive)
Cc1c(Cc2ccccc2)c(=O)oc2c(C)c(OCC(=O)N[C@@H](Cc3ccccc3)C(=O)O)ccc12 | > 200 µM (inactive)
COc1ccc(CCNC(=O)c2ccc(S(=O)(=O)N(C)c3ccccc3)cc2)cc1OC | > 200 µM (inactive)
CCN(CC)CCOC(=O)c1ccc(N/C=C(/C#N)c2nc(-c3cc4ccccc4oc3=O)cs2)cc1 | > 200 µM (inactive)
Cc1ccc(C(=O)COc2ccccc2C(=O)Nc2ccccc2)cc1 | > 200 µM (inactive)
Oc1ccc(N=Cc2sc3ccccc3c2Cl)cc1 | > 200 µM (inactive)
N#Cc1c(NC(=O)c2ccc(Br)o2)n(-c2ccccc2)c2nc3ccccc3nc12 | > 200 µM (inactive)
N#CC1C=Cc2ccccc2N1C(=O)c1ccccc1 (configuration not stated) | > 200 µM (inactive)
Oc1ccc(N=Cc2ccc(OCc3ccccc3)cc2)cc1 | > 200 µM (inactive)
CCCCn1c(NS(=O)(=O)c2ccccc2)c(C(=O)OCC)c2nc3ccccc3nc21 | > 200 µM (inactive)
CCCCNc1c2c3c(cccc3n(C)c1=O)C(=O)c1ccccc1-2 | > 200 µM (inactive)
C=CCn1c(NS(=O)(=O)c2ccccc2)c(S(=O)(=O)c2ccc(C)cc2)c2nc3ccccc3nc21 | > 200 µM (inactive)
COC(=O)c1ccc2c(c1)C(C)(C)C(/C=C/c1ccccc1O)=[N+]2C | > 200 µM (inactive)
CCOc1ccccc1CNc1ccc(O)cc1 | > 200 µM (inactive)
O=C(O)CCCCN1C(=O)/C(=C\c2ccc(OCc3ccccc3)c(OCc3ccccc3)c2)SC1=S | > 200 µM (inactive)
Cc1cc(C)n2ncc(C(=O)Nc3ccc4c(c3)OCO4)c2n1 | > 200 µM (inactive)
CCCCn1c(NS(=O)(=O)c2ccc(C)cc2)c(S(=O)(=O)c2ccccc2)c2nc3ccccc3nc21 | > 200 µM (inactive)
CCN(CC)CCOC(=O)c1ccc(N/C=C(/C#N)c2nc(-c3ccc(OC)c(OC)c3)cs2)cc1 | > 200 µM (inactive)

SMILES | IC50
COc1cc(/C=C(\C#N)c2nc3ccccc3[nH]2)ccc1OC(=O)c1ccco1 | > 200 µM (inactive)
CN(Cc1c(C(=O)N/N=C/c2ccc(F)cc2)nnn1-c1nonc1N)C1CCCCC1 | > 200 µM (inactive)
CC(NC(=O)Nc1ccc(O)cc1)(C(F)(F)F)C(F)(F)F | > 200 µM (inactive)
COc1cccc(CCC(=O)N(C)C2CCCN(Cc3ccccc3F)C2)c1 (configuration not stated) | > 200 µM (inactive)
C=CCc1cccc2cc(C(=O)Nc3ccc(CC(=O)O)cc3)c(=O)oc12 | > 200 µM (inactive)
CCOC(=O)/C(C#N)=c1/s/c(=C2\C=Cc3ccccc3N2CC)c(=O)n1CC | > 200 µM (inactive)
COCCCn1c(N)c(C(=O)NCc2ccco2)c2nc3ccccc3nc21 | > 200 µM (inactive)
O=C(NCc1c(F)cccc1F)c1cc(COc2c(F)cccc2F)on1 | > 200 µM (inactive)
CC1=CC(C)(C)N2C(=O)C(=Nc3ccc(O)cc3)c3cccc1c32 | > 200 µM (inactive)
Fc1ccc(/C=N/NC(=S)Nc2cccnc2)cc1F | > 200 µM (inactive)
C=C(C)Cn1c(N2CCN(CC)CC2)nc2c1c(=O)[nH]c(=O)n2C | > 200 µM (inactive)
Nc1c(C(=O)NCc2ccco2)c2nc3ccccc3nc2n1Cc1ccccc1 | > 200 µM (inactive)
NS(=O)(=O)c1ccc(NS(=O)(=O)c2ccc(NC(=O)c3ccc(-c4ccccc4)cc3)cc2)cc1 | > 200 µM (inactive)
CCn1c(O)c(C=Nc2ccc(N3CCOCC3)cc2)c(=O)n(CC)c1=S | 13.9 µM
O=C(Nc1ccc(Cl)cc1)OCc1cn(-c2ccccc2)nn1 | > 200 µM (inactive)
COC(=O)C1CC(=O)N(c2ccc(OCc3ccccc3Cl)cc2)C1 (configuration not stated) | > 200 µM (inactive)
COC/C=C/C1=CC2=CC(=O)C(C)(OC(=O)c3ccco3)C(=O)C2=CO1 (configuration not stated) | > 200 µM (inactive)
COCCOC(=O)c1sc(=S)n(CCOC)c1N | 15.3 µM

Source: PubChem BioAssay AID2127 (Sanford-Burnham Center for Chemical Genomics, 2009)
